Data reported in US20140256790A1, “Methods for Identifying and Compounds Useful for Increasing the Functional Activity and Cell Surface Expression of CF-Associated Mutant Cystic Fibrosis Transmembrance Conductance Regulator” (priority 2008, published 2014).

Tests used:
[1] = test system: ΔF508 CFTR; assay: Trans-epithelial chloride flux (short-circuit current, Ussing chamber) in CFTR ΔF508 homozygous primary bronchial epithelial cells; settings: primary CF bronchial epithelial cell culture on filter support; Ad-siRNA knockdown; forskolin 10 μM, genistein 50 μM
Description: A further validation of the correction of ΔF508 CFTR is the correction of trans-epithelial chloride transport in primary bronchial epithelial cell cultures from a CF patient, grown in a filter support. […] A standard drug addition protocol (Devor et al., 2000) can be used to detect transepithelial currents due to CFTR. Short-circuit current (Isc) across HBE primary cultures can be measured as described (Myerburg et al., 2006; Myerburg et al., 2008). Cells cultured on filter supports are mounted in modified Ussing chambers, and the cultures are continuously short-circuited with an automatic voltage clamp (Physiological Instruments, San Diego, Calif.). The basolateral bathing solution composition is: 120 mM NaCl, 25 mM NaHCO3, 3.3 mM KH2PO4, 0.8 mM K2HPO4, 1.2 mN MgCl2, 1.2 mM CaCl2, and 10 mM glucose. A basal-to-apical Cl gradient can be imposed by reducing the NaCl concentration of the apical bathing solution by replacing NaCl with equimolar Na-gluconate. The chambers are maintained at 37° C. and gassed continuously with a mixture of 95% O2-5% CO2 which fixed the pH at 7.4. Following a 5 min equilibration period, the baseline Isc is recorded. Sodium currents are blocked by addition of the epithelial sodium channel (ENaC) blocker, amiloride (10 μM), to the apical bath. […]

[2] = test system: ΔF508-CFTR; assay type: cell-based, human; settings: rescreen with repropagated Ad-siRNA; ΔF508-CFTR and YFP adenovirus; 10 microM forskolin and 100 microM genistein; threshold −2
Sequence of ΔF508-CFTR (P13569 other isoform, or with tags, fused parts or gaps DEL508-508): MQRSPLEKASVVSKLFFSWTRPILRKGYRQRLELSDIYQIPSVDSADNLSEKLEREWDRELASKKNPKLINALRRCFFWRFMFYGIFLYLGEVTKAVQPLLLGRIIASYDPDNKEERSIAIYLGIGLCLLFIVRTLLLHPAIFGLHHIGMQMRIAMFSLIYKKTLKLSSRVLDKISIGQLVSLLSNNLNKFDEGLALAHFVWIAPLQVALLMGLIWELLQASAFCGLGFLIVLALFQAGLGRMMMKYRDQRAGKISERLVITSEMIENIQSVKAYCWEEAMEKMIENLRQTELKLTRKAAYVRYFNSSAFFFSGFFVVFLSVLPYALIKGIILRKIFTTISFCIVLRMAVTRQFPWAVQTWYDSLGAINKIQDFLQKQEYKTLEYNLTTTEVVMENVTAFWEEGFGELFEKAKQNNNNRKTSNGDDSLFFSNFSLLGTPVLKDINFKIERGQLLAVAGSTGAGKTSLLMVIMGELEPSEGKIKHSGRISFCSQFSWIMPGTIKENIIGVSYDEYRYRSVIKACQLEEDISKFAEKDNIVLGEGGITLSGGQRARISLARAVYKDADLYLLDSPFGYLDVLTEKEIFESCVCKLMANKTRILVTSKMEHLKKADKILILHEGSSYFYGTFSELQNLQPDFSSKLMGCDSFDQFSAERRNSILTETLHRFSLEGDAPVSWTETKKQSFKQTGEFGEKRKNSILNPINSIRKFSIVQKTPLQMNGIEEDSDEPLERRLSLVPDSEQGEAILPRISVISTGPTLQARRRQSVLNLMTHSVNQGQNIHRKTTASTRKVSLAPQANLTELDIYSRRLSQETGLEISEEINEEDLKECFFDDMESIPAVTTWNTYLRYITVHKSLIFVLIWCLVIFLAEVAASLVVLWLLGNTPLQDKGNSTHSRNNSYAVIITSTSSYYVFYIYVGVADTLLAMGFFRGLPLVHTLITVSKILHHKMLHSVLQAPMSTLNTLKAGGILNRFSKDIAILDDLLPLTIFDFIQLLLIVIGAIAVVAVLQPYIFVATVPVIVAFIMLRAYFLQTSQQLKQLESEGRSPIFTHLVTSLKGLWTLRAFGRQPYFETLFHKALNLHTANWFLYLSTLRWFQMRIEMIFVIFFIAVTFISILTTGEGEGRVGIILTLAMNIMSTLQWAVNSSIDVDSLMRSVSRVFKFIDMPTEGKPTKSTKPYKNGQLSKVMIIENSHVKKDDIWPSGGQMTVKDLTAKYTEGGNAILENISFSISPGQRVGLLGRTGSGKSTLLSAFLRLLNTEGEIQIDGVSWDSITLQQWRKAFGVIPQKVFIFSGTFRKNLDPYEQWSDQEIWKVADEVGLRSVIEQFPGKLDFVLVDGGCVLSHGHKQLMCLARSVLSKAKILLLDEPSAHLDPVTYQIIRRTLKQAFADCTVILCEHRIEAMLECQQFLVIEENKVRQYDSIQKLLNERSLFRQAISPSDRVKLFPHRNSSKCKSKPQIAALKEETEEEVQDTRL
Experimental: Accordingly, an assay to monitor CFTR-halide flux by using a reporter protein, halide-sensitive fluorescent protein YFP, is developed to measure the functional activity of CFTR. Cells expressing this reporter protein show enhanced fluorescence quenching of YFP by extracellular isomolar iodide solutions in the presence of activated CFTR. This is caused by the increased flux of iodide across the plasma membrane by CFTR. The fluorescence quenching is measured on a fluorescence plate reader.
Human lung epithelial cells are isolated from a ΔF508-CFTR patient, obtained after informed consent. These cells are stably transfected with ΔF508-CFTR expression plasmids and are named CFBE41o-cells (Gruenert et al., 2004). […]
CFBE41o-cells are transduced with the YFP fluorescent halide reporter adenoviral vector at a VPU of 2000 viral particles per cell, together with adenoviral vectors expressing ΔF508-CFTR, or as a positive control the wild-type CFTR. […] Plates are read in a fluorescent plate reader, equipped with injectors for the delivery of reagents to the well (Perkin-Elmer Envision 2102). Each well is read for 2 seconds at 485/530 nm (excitation/emission) prior to the addition of 110 microliter iodide-containing buffer (137 mM NaI, 2.7 mM KCl, 10 mM Na2HPO4, 1.76 mM KH2PO4 at pH 7.4). Fluorescent reading is continued for an additional 12 sec, sampling every 200 msec. […]

[3] = test system: ΔF508 CFTR; assay: Cell-surface expression of ΔF508 CFTR by cell-surface biotinylation and Western blot in CFBE41o-cells; assay type: cell-based, human
Experimental: This analysis allows a more quantitative measurement of the levels of restoration of cell-surface expressed ΔF508 CFTR, as well as the glycosylation status of the ΔF508 CFTR protein (Cheng et al., 1990). A preferred effect of a HIT would be increased cell-surface expression of ΔF508 CFTR, and especially “band C” (Cheng et al., 1990), fully glycosylated ΔF508 CFTR. The assay to measure cell surface expression of ΔF508-CFTR is performed in the following fashion: CFBE41o-cells are seeded in 60 mm cell culture dishes coated with 0.1 mg/mL bovine serum albumin (BSA), 0.03 mg/mL bovine collagen type 1 and 0.01 mg/mL human fibronectin. CFBE41o-cells are cultured in MEM containing 10% Fetal Bovine Serum, 2 mM glutamine, 100 IU/mL penicillin, 0.1 mg/mL streptomycine sulfate and 0.5 mg/mL hygromycin B at 37° C., 5% CO2 in a humidified chamber. One day after seeding, an aliquot of the Ad-siRNA is applied to each well. […] The supernatant is analyzed on Western blots (BioRad Criterion XT gels, 3-8% polyacrylamide #3450131). […] Quantification of the cell surface expression of ΔF508 CFTR was performed with Biorad Quantity One software.
Positive and negative controls for the biotinylation include incubation of cell culture at 27° C. for 48 hrs to correct misfolding and trafficking of ΔF508 CFTR, and omission of Ad-siRNAs respectively. No signal is detected when the biotinylation reagent was omitted. […]
Target sequence in this assay (P13569 other isoform, or with tags, fused parts or gaps DEL508-508): as above

## UGT3A2: Ad-siRNA (adenovirus-expressed shRNA) knocking down UGT3A2; KD sequences SEQ ID NO: 56, 57; SEQ 57 used in Table 6 (guide AACATGGTCCGAGTAGAAG; listed as Homo sapiens)
[1]
  Forskolin-Genistein induced chloride flux in CF primary epithelial cells compared to control cells (non-CF): 22.9%
[2]
  Forskolin-Genistein induced halide flux in CFBE41o-: −5.485 fold stdev from the mean of the negative controls
[3]; CFBE41o- cell culture upon TARGET Ad-siRNA, relative to E-cadherin signal, without Ad-siRNAs set at 0, 27° C. for 48 hrs set at 1
  CFTRΔF508 cell surface expression: 0.906
[3]; cell-surface ΔF508 CFTR, band C fully glycosylated / band B core glycosylated, CFBE41o-
  C-band/B-band ratio: 0.278
